# Measurements as given in patent US9642874B2, “Compositions of selenoorganic compounds and methods of use thereof” (Alltech, Inc., priority 2014, dated 2017).
# What was measured:
# [1] = test system: primary mouse hepatocytes; experiment: Glucose production in primary mouse hepatocytes (glucose in culture media); format: cell-based; conditions: for 8-CPT/Dex-stimulated glucose production: serum-free; for 8-CPT/Dex-stimulated glucose production / decrease of glucose production: 6 hours
# Protocol: (§1) The overnight-acclimated hepatocytes were washed twice with PBS (to remove any residual FBS and other additives in the TRL hepatocyte maintenance medium, pretreated with control (water) or selenium Compounds CDE (150 or 300 ppb of each selenium compound) in DMEM/F12 media supplemented with 10% fetal bovine serum (FBS) for 24 hr. These cells were then washed twice with PBS and incubated with the same dose of selenium Compounds CDE (150 or 300 ppb) in the presence or absence of insulin (10 or 100 nM, Sigma), 0.1 mM 8-CPT (Sigma) or 0.5 μM Dex (Sigma) in serum-free and glucose-free DMEM media (Invitrogen) supplemented with 20 mM lactose (Sigma) and 2 mM pyruvate (Sigma) and 15 mM HEPES (Sigma) for another 6 hours. After treatments, cell media were collected and subjected to glucose assay and toxicological studies of lactate dehydrogenase (LDH) and cells were collected for RNA and protein analysis.
# For the studies of Compounds CDE on primary mouse hepatocytes under totally serum-free culture conditions, hepatocytes were acclimated in hepatocyte maintenance medium (TRL) for 8 hours, washed twice with PBS (to remove any residual FBS and other additives in the culture dish) and then starved in serum-free DMEM/F12 media overnight. Some of these serum-starved hepatocytes were treated with control (water), selenium compounds (150 or 300 ppb of each compound) in the presence or absence of insulin (10 or 100 nM), 0.1 mM 8-CPT (Sigma) or 0.5 μM Dex (Sigma) in serum-free and glucose/phenol red-free DMEM media supplemented with 20 mM lactose and 2 mM pyruvate and 15 mM HEPES for 6 hours. After 6 hours treatment, culture media were collected for glucose analysis and toxicological studies monitoring LDH activity and cultured cells were isolated for protein analysis. In addition, some serum-starved hepatocytes were treated with Compounds CDE (300 ppb of each compound) in plain DMEM/F12 media for 0, 5, 30, 60, 120 and 180 min and cells were collected for the time-course protein analysis of various signaling molecules.
# Cell culture media from the above described treatments were collected and centrifuged at 300×g for 5 minutes to remove any potential dislodged hepatocytes and subjected to glucose analysis using a colormetric glucose assay kit (Abcam) according to the manufacturer protocol. The absorbance at OD570 nm in the samples and various concentrations of glucose standards were determined by the Bio-Tek microplate reader, and glucose concentration in the medium of each sample was obtained from the glucose standard curve, and then normalized by its protein level in attached cells which were determined using the Pierce Micro-BCA protein assay kit (Thermo Scientific-Piece Biotechnology, Rockford, Ill.) according to the manufacturer's protocol. Glucose levels in each treatment group were divided by the mean level in control group (without the treatments of Compounds CDE, insulin, 8-CPT and Dex) to obtain the relative glucose level. Data are presented as Mean±SEM of 3-4 samples.
# Similar to the studies on AML-12 cells, primary mouse hepatocytes were pretreated with a control (water) or 150 ppb and 300 ppb doses of selenium Compounds CDE in serum-containing DMEM/F12 media for 24 hours. This treatment was followed by retreatments with these selenium compounds in the presence or absence of insulin (10 and 100 nM) or insulin alone for 6 hours. […]
# PDK1 = experiment: Western blot of pPdk1 in primary mouse hepatocytes; format: cell-based; conditions: 100 nM insulin 6 hours, or Compounds CDE both doses 24 hours + 6 hours
# Protocol: as §1, with “After treatments, cell media were collected and subjected to glucose assay and toxicological studies of lactate dehydrogenase (LDH) and cells were collected for RNA and protein analysis.” left out
# After the above described treatments, primary mouse hepatocytes were rinsed with ice-cold PBS and lysed in the ice-cold RIPA buffer containing complete proteinase and phosphatase inhibitors (Thermo-Fisher Scientific, Waltham, Mass.) on ice for 30 min Cell lysates were collected using a cell scraper and transfer pipette and then centrifuged at 12000×g for 30 min at 4° C. to remove the DNA pellet and obtain the protein extract. Protein levels in the supernatant of these cell lysates were determined using the Pierce Micro-BCA protein assay kit (Thermo Scientific-Piece Biotechnology, Rockford, Ill.) according to the manufacturer's protocol. […]
substance,measurement,setting,value
"insulin: insulin (10 or 100 nM, Sigma) used as comparator and cotreatment",8-CPT/Dex-stimulated glucose production,[1]; 10 nM insulin,significantly inhibited glucose production
same,8-CPT/Dex-stimulated glucose production,[1]; 100 nM insulin,only a trend of decreased glucose production
same,8-CPT/Dex-induced glucose production,"[1]; insulin 10 and 100 nM, vs 8-CPT/Dex group",significantly decreased 8-CPT/Dex-induced glucose production
same,decrease of glucose production,"[1]; insulin alone at 10 nM and 100 nM, vs water-treated control",25-30%
same,decrease of glucose production,"[1]; insulin alone, both doses (10, 100 nM), serum-starved, serum-free media",40-47%
same,pPdk1 protein level (in words),PDK1,significant increase
